# Results published in patent US20140363489A1, “TREATMENT OF EYE DISEASE” (Panacea Pharmaceuticals, priority 2013, published 2014).
# Entries after “also recorded” stand apart in the source; their conditions may differ. Like-named read-outs stand apart in the source and are kept apart here.
# B1: CNTF: Ciliary neurotrophic factor, neurotrophic factor delivered into eye (protein, UniProt P26441 1-200, looked up)
# Ciliary neurotrophic factor: MAFTEHSPLTPHRRDLCSRSIWLARKIRSDLTALTESYVKHQGLNKNINLDSADGMPVASTDQWSELTEAERLQENLQAYRTFHVLLARLLEDQQVHFTPTEGDFHQAIHTLLLQVAAFAYQIEELMILLEYKIPRNEADGMPINVGDGGLFEKKLWGLKVLQELSQWTVRSIHDLRFISSHQTGIPARGSHYIANNKKM
# Legend:
# [1] = test system: photoreceptor neurons of rd1 mouse retina; assay: ex vivo rd1 mouse retina culture, photoreceptor rows and nucleus numbers; assay type: cell-based; conditions: 10 μM
# Protocol: The effect of PAN-811 was examined in an ex vivo model, in which retinas were isolated from rd1 mouse at PN7 and treated in culture with 0, 2 and 10 μM PAN-811 for 21 days (equal to PN28).
# The one model of RP study is rd1 mouse in which, like in RP patient, the gene for β-phospodiesterase is spontaneously mutated in rod photoreceptor neurons results in the rod cell loss. The apoptosis starts at postnatal day (PN) 9 to 10, peaks at PN13 and is completed at PN21.
# To test the effect PAN-811, retinas from rd1 (C3H strain) mice at PN7 were cultured in the presence of 0 (n=6), 2 (n=6) and 10 (n=7) μM PAN-811. After 21 days in vitro (equal to PN28), the hematoxylin/eosin stained retinal section was analyzed at five positions; the very center of the retina plus at two positions on each side of this, approximately 200 μm apart, and referred to as mid-periphery and periphery, respectively. The retina from the rd1 mouse commonly carried only a thin layer of photoreceptor neurons (FIG. 1A—photo on left). […] Quantitatively, a control group has two layers of photoreceptor neurons at center, mid-periphery or pheriphery (FIG. 1B). PAN-811 at a concentration of 10 μM, but not 2 μM, increased the row numbers from 2 to 3 (P<0.05) at all measured areas.
# Nucleus numbers for photoreceptor neurons that locate in center (n=7), mid-periphery (n=6) and periphery (n=6) were counted on photos (within 35 mm length of rode photoreceptor layer after magnification) by ImageJ software (NIH) and the data were expressed as percentage of untreated control. […]
# Twenty retinas from 10 rd1 mice (C3H strain) were dissected out at PN7 and mounted flat on HA mixed cellulose, 0.45 μm membranes fitted to culture dish inserts (Millipore Corp). […] The sections were analyzed and photographed under a microscope, blindly with respect to origin The rows of photoreceptors in the outer nuclear layer of the retina were quantitatively evaluated in a total of at least 30 sections for each preparation (4 slides from each preparation and 8 sections from each slide). […]
# [2] = test system: ischemic stroke; conditions: ischemic stroke model (Jiang et al., 2006); cited from earlier work
# [3] = test system: retinal degeneration; conditions: RCS, P23H, S334ter, photo stress rats, rd mice, CAR model rats (Ohguro, 2008); cited from earlier work
# [4] = test system: retinal degeneration; conditions: RSC rats; cited from earlier work
# [5] = cited from earlier work
molecule,measurement,setting,value
"NC(=S)N/N=C/c1ncccc1N [PAN-811, 3-aminopyridine-2-carboxaldehyde thiosemicarbazone]",increase of nucleus numbers of photoreceptor neurons vs untreated control,"[1]; 21 days in vitro, center, mid-periphery and periphery, P<0.01",about 50%
same,row numbers of photoreceptor neurons,"[1]; 21 days in vitro, center, mid-periphery, periphery, control 2 rows, P<0.05",3
same,loss of photoreceptor neurons / thickness of photoreceptor layer,"[1]; retinas from rd1 mouse at PN7, 21 days in culture",prevents loss of photoreceptor neurons; also recorded: prevented the loss of photoreceptor neurons; also recorded: thicker
same,neuroprotective activity,[2],potent neuroprotective activity
COC(=O)C1=C(C#N)NC(C)=C(C(=O)OC(C)C)C1c1cccc([N+](=O)[O-])c1 (stereo not shown) [Nilvadipine],effect against retinal degeneration,[3],beneficial effects against retinal degeneration in all models tested
same,effect against retinal degeneration,[4],beneficial effect against retinal degeneration
B1,half-life in vivo,[5],2 to 6.67 h
